# Key:
# [1] = biological target: T1, motilin receptors located on the colon of mature rabbits (Oryctolagus cuniculus, UniProt G1T803); assay: competition with radiolabeled (125I) porcine motilin for the motilin receptors of rabbit colon; format: binding; details: for IC50: rabbit colon, 125I motilin, read-out: IC50
# T1 construct: The colon from mature New Zealand rabbits was removed, dissected free from the mucosa and serosa layers, and diced into small pieces; from tissue; host or cells: colon smooth muscle of mature New Zealand rabbits, crude membrane homogenate
# T1 sequence (G1T803 1-400): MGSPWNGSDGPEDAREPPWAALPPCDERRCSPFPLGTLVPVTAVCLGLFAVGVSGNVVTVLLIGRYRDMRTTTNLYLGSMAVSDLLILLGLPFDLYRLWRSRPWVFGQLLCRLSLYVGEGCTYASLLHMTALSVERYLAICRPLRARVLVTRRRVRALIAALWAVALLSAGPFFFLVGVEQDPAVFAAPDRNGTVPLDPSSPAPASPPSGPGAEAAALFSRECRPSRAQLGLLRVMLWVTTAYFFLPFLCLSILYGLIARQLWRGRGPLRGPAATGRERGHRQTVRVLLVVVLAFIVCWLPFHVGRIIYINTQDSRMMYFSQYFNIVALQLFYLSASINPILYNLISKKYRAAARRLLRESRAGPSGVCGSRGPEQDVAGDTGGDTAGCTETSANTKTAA
# Method: The compounds of the invention were tested for their ability to compete with radiolabeled motilin (porcine) for the motilin receptors located on the colon of mature rabbits. The colon from mature New Zealand rabbits was removed, dissected free from the mucosa and serosa layers, and diced into small pieces. […] The homogenate was centrifuged at 1000×g for 15 min. and the supernatant discarded. The pellet was washed twice before being suspended in homogenizing buffer. This crude homogenate is then passed first through a 19 gauge needle then a 23 gauge needle to further suspend the material and stored as -80° C. […] After 30 min, at 30° C., the material was cooled on ice and centrifuged at 13,000×g for 1 minute. The pellet was washed with 1 mL 0.9% saline and centrifuged at 13,000×g for 15 seconds. The pellet was washed again with cold saline and the supernatant was removed. The pellet was counted in the gamma counter to determine the percentage of […] motilin and thereby the percent inhibition of the test compound. IC50s were determined for some compounds by standard techniques.
# [2] = tested on: rabbit duodenum smooth muscle (motilin and erythromycin induced contractions); assay: inhibition of motilin (porcine) induced contractions in rabbit duodenum smooth muscle; format: cell-based; details: Oryctolagus cuniculus; @ 1.0 μM
# Method: Select compounds of the invention were evaluated for their ability to inhibit motilin and erythromycin induced contractions in the rabbit duodenum smooth muscle. Rabbits were fasted 24-48 h and euthanized. The venral midline incision was made approximately 7.5 cm above the umbilicus upto the xyphoid process, exposing the upper peritoneal cavity. The first 8 cm. of the duodenum starting at the pyloric valve was quickly removed and placed in Krebs solution containing NaCl, ([…]), KCl (4.7 mM), MgSO4 *7 H2 O (1.2 mM), CaCl2 *2 H2 O (2.4 mM), KH2 PO4 (1 mM), D-glucose (10 mM), and NaHCO3 (24 mM). The lumen was flushed with Krebs and excess tissue was removed. The tissue was cut lengthwise, splayed open with the longitudinal muscle layer facing up, and the longitudinal muscle layer was released away from the circular muscle and cut into 3×30 mm strips. A pre-tied 4-0 silk ligature with a loop was placed at the middle of the strip and the strip was folded over the loop so the strip was half its original length. The tissues were mounted in a 10 mL tissue bath (Radnotti Glass Technology, Inc., Monrovia, Calif.) containing Krebs solution gassed with 95% O2 5% CO2 at 37° C. […] The tissues were allowed to equilibrate for 60-90 min with 2-3 wash cycles. The tissues were equilibrated with two initial contractions induced by a concentration of acetylcholine (1×10^-4 M) that produced a maximal contraction (0.1 mM), with the highest taken as 100% maximall contraction of that tissue. Base line and response levels are expressed as grams tension developed and as a percent of the response to acetylcholine. The test compounds were dissolved in DMSO (2 mM/100% DMSO) and applied to the prepared strips 5-15 minutes prior to the addition of porcine motilin. After addition, the tension is constantly monitored over 5 min and the maximum tension is recorded. The percent contraction was measured at four ascending concentrations and where appropriate IC50s were determined.
# motilin receptor = details: Weber et al. 1993; cited from earlier work
# [3] = tested on: smooth muscle in the stomach tissue of dogs, rabbits, and humans and in the colon of rabbits; details: cited from earlier work
# humans = details: intravenous, Christofides et al. 1979; cited from earlier work
Compound,IC50 [1],inhibition at 1 µM [2],further results
COc1ccc(CC2(NC(=O)C(Cl)(Cl)Cl)C=C(CN(C(=O)c3ccc(F)cc3)c3cccc(OCCN4CCOCC4)c3)CC2)cc1 (centres unmarked) [Compound 65],56 nM,72%,–
COc1ccc(CC2(NC(=O)C(Cl)(Cl)Cl)C=C(CN(C(=O)c3ccccc3)c3cccc(OCCN4CCOCC4)c3)CC2)cc1 (centres unmarked) [Compound 66],56 nM,58%,–
O=C(Nc1ccccc1)N(CC1=CC(Cc2ccc(F)cc2)(NC(=O)C(Cl)(Cl)Cl)CC1)c1cccc(OCCN2CCOCC2)c1 (centres unmarked) [Compound 67],–,25.7%,inhibition at 0.25 µM ([1]; @ 0.25 μM): 34%
O=C(Nc1ccccc1)N(CC1=CC(Cc2cccc(Cl)c2)(NC(=O)C(Cl)(Cl)Cl)CC1)c1cccc(OCCN2CCOCC2)c1 (centres unmarked) [Compound 68],–,51%,inhibition at 0.1 µM ([1]; @ 0.1 μM): 70%
CC[C@H]1OC(=O)[C@H](C)[C@@H](O[C@H]2C[C@@](C)(OC)[C@@H](O)[C@H](C)O2)[C@H](C)[C@@H](O[C@@H]2O[C@H](C)C[C@H](N(C)C)[C@H]2O)[C@](C)(O)C[C@@H](C)C(=O)[C@H](C)[C@@H](O)[C@]1(C)O [erythromycin],–,–,biological responses compared with motilin (motilin receptor): elicits biological responses that are comparable to motilin itself
CC[C@H](C)[C@H](NC(=O)[C@@H]1CCCN1C(=O)[C@@H](NC(=O)[C@@H](N)Cc1ccccc1)C(C)C)C(=O)N[C@@H](Cc1ccccc1)C(=O)N[C@H](C(=O)N[C@@H](Cc1ccc(O)cc1)C(=O)NCC(=O)N[C@@H](CCC(=O)O)C(=O)N[C@@H](CC(C)C)C(=O)N[C@@H](CCC(N)=O)C(=O)N[C@@H](CCCNC(=N)N)C(=O)N[C@@H](CCSC)C(=O)N[C@@H](CCC(N)=O)C(=O)N[C@@H](CCC(=O)O)C(=O)N[C@@H](CCCCN)C(=O)N[C@@H](CCC(=O)O)C(=O)N[C@@H](CCCNC(=N)N)C(=O)N[C@@H](CC(N)=O)C(=O)N[C@@H](CCCCN)C(=O)NCC(=O)N[C@@H](CCC(N)=O)C(=O)O)[C@@H](C)O [motilin],–,–,smooth muscle contractions [3]: induces smooth muscle contractions; gastric emptying and gut hormone release (humans): increase gastric emptying and gut hormone release
